In patent US20250000128A1, “SALTINESS ENHANCING COMPOSITION, AND COMPOSITION FOR ORAL USE AND METHOD OF ENHANCING SALTINESS THEREOF” (Nagase Viita Co., Ltd., priority 2021, published 2025):

Experiment: Sensory evaluation of saltiness enhancing effect in aqueous salt solution (Experiments 2 and 3); further: key: A test sample for which the majority of the expert panelists evaluated as having a stronger saltiness than the control sample was determined as having a saltiness enhancing effect (Good); a sample for which they did not so was determined as having no saltiness enhancing effect (Bad); *2: Undetermined whether saltiness was enhanced or not due to strong bitterness
Format: in vivo, human
Description: The preparation of 3″-α-GN prepared in Experiment 1, Sunphenon EGCg-OP (from Taiyo Kagaku Co., Ltd., epigallocatechin gallate (EGCg), 95.3% pure), naringin (from Sichuan Xinhua Health Biotechnology Co., Ltd., 98.2% pure) or Hayashibara Hesperidin S (from Hayashibara Co., Ltd., monoglucosyl hesperidin, 82.1% pure), and salt (from The Salt Industry Center of Japan, the purity of sodium chloride was 99% or higher) were dissolved in pure water to give concentrations as shown in Table 1 below for preparing aqueous solutions of a control sample and test samples 1-1 to 1-5. Then, 9 panelists competent in food sensory evaluation who had passed the five-taste test (hereinafter referred to as “expert panelists”) conducted sensory evaluation tests on the test samples. Specifically, each of the expert panelists held a room-temperature control sample and a room-temperature test sample in her/his mouth and evaluated whether the saltiness of the test sample was weaker, similar, or stronger than that of the control sample, and recorded the overall taste.
Control samples 2 and 3 and test samples 9 and 10 were prepared as in Experiment 2, except that the concentrations of 3″-α-GN and salt were changed as shown in Table 2 below. Sensory evaluation tests were then conducted as in Experiment 2 to evaluate the intensity of saltiness of the test samples including 3″-α-GN as compared with the control samples of the same salt concentrations.

[1] = 5 ppm in water, salt 0.5 mass % (test samples 3, 6, 7)

CC1O[C@@H](OC2C(O[C@H]3OC(CO)[C@@H](O)C(O)C3O)[C@H](O)C(CO)O[C@H]2Oc2cc(O)c3c(c2)OC(c2ccc(O)cc2)CC3=O)C(O)C(O)[C@H]1O (stereo partly drawn) [3″-α-GN, 3″-α-monoglucosyl naringin]
Saltiness enhancing effect (0.1 ppm in water, salt 0.5 mass %, G/S 0.02×10^−3 (test sample 1 vs control sample 1)): Good
Saltiness enhancing effect (1 ppm in water, salt 0.5 mass %, G/S 0.2×10^−3 (test sample 2)): Good
Saltiness enhancing effect (1 ppm in water, salt 1 mass %, G/S 0.1×10^−3 (test sample 9 vs control sample 2)): Good
Saltiness enhancing effect (1 ppm in water, salt 2 mass %, G/S 0.05×10^−3 (test sample 10 vs control sample 3)): Good
Saltiness enhancing effect [1]: Good
Saltiness enhancing effect (10 ppm in water, salt 0.5 mass %, G/S 2.0×10^−3 (test sample 4)): Good
Saltiness enhancing effect (40 ppm in water, salt 0.5 mass %, G/S 8.0×10^−3 (test sample 5)): *2

O=C(O[C@@H]1Cc2c(O)cc(O)cc2O[C@@H]1c1cc(O)c(O)c(O)c1)c1cc(O)c(O)c(O)c1 [EGCg, epigallocatechin gallate, reference compound]
Saltiness enhancing effect [1]: Bad

monoglucosyl hesperidin [reference compound]
Saltiness enhancing effect (4 ppm in water, salt 0.5 mass % (test sample 8)): Bad

C[C@@H]1O[C@@H](O[C@H]2[C@H](Oc3cc(O)c4c(c3)O[C@H](c3ccc(O)cc3)CC4=O)O[C@H](CO)[C@@H](O)[C@@H]2O)[C@H](O)[C@H](O)[C@H]1O [Naringin, naringin, reference compound]
Saltiness enhancing effect [1]: Bad
